Experimental data reported in ChEMBL document CHEMBL1140544, “Microbial transformation of three bufadienolides by Nocardia sp. and some insight for the cytotoxic structure-activity relationship (SAR)” (Bioorg Med Chem Lett, 2007).

Experiments:
HeLa = experiment: Cytotoxicity against human HeLa cells; assay type: functional, cell-based
BGC-823 = experiment: Cytotoxicity against human BGC823 cells; assay type: cell-based
HepG2 = experiment: Cytotoxicity against human HepG2 cells; assay type: functional, cell-based

Row | SMILES | IC50 (HeLa) [nM] | IC50 (BGC-823) [nM] | IC50 (HepG2) [nM]
1 | CC(=O)O[C@H]1CC[C@@]2(C)[C@H](CC[C@@H]3[C@@H]2CC[C@]2(C)[C@@H](c4ccc(=O)oc4)CC[C@]32O)C1 | 1140 | 700 | 740
2 | CC(=O)O[C@H]1CC[C@@]2(C)[C@H](CC[C@@H]3[C@@H]2CC[C@]2(C)[C@@H](c4ccc(=O)oc4)[C@@H](OC(C)=O)[C@@H](O)[C@]32O)C1 | 450 | 3370 | 3100
3 | CC(=O)O[C@H]1CC[C@@]2(C)[C@H](CC[C@@H]3[C@@H]2CC[C@]2(C)[C@@H](c4ccc(=O)oc4)[C@@H](OC(C)=O)[C@H]4O[C@]342)C1 | 1090 | 4110 | 6440
4 | CC(=O)O[C@H]1CC[C@@]2(C)[C@H](CC[C@@H]3[C@@H]2CC[C@]2(C)[C@@H](c4ccc(=O)oc4)C[C@H]4O[C@]342)C1 | > 50000 | 19800 | > 50000
5 | C[C@]12CC[C@H](O)C[C@H]1CC[C@@H]1[C@@H]2CC[C@]2(C)[C@@H](c3ccc(=O)oc3)CC[C@]12O [BUFALIN] | 730 | 990 | 640
6 | C[C@]12CC[C@H](O)C[C@H]1CC[C@@H]1[C@@H]2CC[C@]2(C)[C@@H](c3ccc(=O)oc3)C[C@H]3O[C@]132 [BUFOGENIN] | > 50000 | 7890 | > 50000
7 | CC(=O)O[C@H]1[C@H]2O[C@]23[C@@H]2CC[C@@H]4C[C@@H](O)CC[C@]4(C)[C@H]2CC[C@]3(C)[C@H]1c1ccc(=O)oc1 [CINOBUFAGIN] | 760 | 8500 | 5200
8 | CC(=O)O[C@H]1C(=O)[C@@]2(C)[C@H]([C@H](OC(=O)c3ccccc3)[C@]3(O)C[C@H](OC(=O)[C@H](O)[C@@H](NC(=O)c4ccccc4)c4ccccc4)C(C)=C1C3(C)C)[C@]1(OC(C)=O)CO[C@@H]1C[C@@H]2O [PACLITAXEL] | 20 | 1150 | 820
